Reference: ChEMBL document CHEMBL6092154, “Design, synthesis, and evaluation of a novel TRAIL-activated HDAC6 inhibitor for the treatment of pulmonary fibrosis” (Bioorg Med Chem, 2024)
The source made the active and inactive calls. No cut-off for these calls is given here.

Legend:
Mus musculus [1] = experiment: (§1) Anti-pulmonary fibrosis activity in bleomycin-induced idiopathic pulmonary fibrosis C57BL/6J mouse model assessed as decrease in lung damage by measuring decrease in inflammatory cell infiltration in lungs at 25 to 50 mg/kg, ig administered daily via gavage and measured on day 14 by Masson's trichrome staining based analysis; assay type: functional, organism-based; details: dose 25-50 mg/kg, time 14.0 day
Histone deacetylase 3 = Histone deacetylase 3 (Homo sapiens, UniProt O15379); experiment: Inhibition of HDAC3 (unknown origin) incubated for 30 mins by fluorometric analysis
Mus musculus [2] = experiment: Anti-pulmonary fibrosis activity in bleomycin-induced idiopathic pulmonary fibrosis C57BL/6J mouse model assessed as decrease in collagen I protein expression in lung at 50 mg/kg, ig administered daily via gavage measured after 14 days by western blot analysis; assay type: functional, organism-based; details: time 14.0 day
Histone deacetylase 2 [3] = target: T1, Histone deacetylase 2 (Homo sapiens, UniProt Q92769); experiment: Inhibition of HDAC2 (unknown origin) incubated for 30 mins by fluorometric analysis
[4] = target: T2, Protein deacetylase HDAC6 (Homo sapiens) (UniProt Q9UBN7); experiment: Inhibition of HDAC6 in human RPMI-8226 cells assessed as increase in acetylated alpha-tubulin level at 0.25 to 1 uM incubated for 24 hrs by western blot analysis; assay type: cell-based; details: dose 0.25-1 µM
T2 sequence (whole entry): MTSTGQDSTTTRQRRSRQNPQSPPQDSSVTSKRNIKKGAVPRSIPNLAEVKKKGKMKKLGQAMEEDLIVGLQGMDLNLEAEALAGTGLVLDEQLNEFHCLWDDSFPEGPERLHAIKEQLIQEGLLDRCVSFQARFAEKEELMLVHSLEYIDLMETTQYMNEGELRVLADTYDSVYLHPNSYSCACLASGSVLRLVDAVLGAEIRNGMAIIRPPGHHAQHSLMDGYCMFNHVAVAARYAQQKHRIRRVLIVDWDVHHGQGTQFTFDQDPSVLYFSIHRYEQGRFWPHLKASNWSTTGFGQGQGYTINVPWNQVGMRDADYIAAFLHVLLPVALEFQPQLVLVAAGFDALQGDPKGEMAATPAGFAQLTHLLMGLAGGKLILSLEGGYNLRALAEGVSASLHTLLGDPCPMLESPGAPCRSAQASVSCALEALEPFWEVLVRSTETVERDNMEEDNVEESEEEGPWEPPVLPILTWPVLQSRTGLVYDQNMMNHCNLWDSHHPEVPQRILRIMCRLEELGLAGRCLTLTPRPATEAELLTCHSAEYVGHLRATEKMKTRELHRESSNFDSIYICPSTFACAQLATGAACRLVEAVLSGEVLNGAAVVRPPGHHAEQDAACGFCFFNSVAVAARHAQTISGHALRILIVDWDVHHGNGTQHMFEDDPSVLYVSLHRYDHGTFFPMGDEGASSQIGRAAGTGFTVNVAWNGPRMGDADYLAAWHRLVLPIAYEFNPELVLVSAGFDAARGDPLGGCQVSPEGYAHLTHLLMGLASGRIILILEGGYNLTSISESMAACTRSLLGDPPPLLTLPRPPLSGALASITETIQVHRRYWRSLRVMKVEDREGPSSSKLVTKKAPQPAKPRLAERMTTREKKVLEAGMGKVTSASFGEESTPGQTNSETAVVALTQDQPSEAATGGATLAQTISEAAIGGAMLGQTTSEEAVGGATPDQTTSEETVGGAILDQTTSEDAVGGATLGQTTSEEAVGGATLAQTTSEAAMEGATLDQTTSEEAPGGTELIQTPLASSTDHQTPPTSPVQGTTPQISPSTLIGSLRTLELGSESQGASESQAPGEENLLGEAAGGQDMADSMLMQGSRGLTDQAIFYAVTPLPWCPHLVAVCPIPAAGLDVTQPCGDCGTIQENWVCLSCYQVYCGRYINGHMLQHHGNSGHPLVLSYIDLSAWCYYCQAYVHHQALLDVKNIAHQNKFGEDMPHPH

[5] = target: T3, Protein deacetylase HDAC6 (Homo sapiens, UniProt Q9UBN7); experiment: Inhibition of HDAC6 (unknown origin) incubated for 30 mins by fluorometric analysis
T3 sequence (Q9UBN7 whole entry): T2 sequence (whole entry)

[6] = Toxicity against bleomycin-induced pulmonary fibrosis C57BL/6J mouse model assessed as effect on heart morphological changes at 25 to 50 mg/kg, ig administered daily via gavage and measured on day 14 by Hematoxylin-Eosin staining based analysis; assay type: organism-based; details: in vivo, po, 336 h, dose 25-50 mg/kg, time 14 day
Histone deacetylase 2 [7] = target: T1, Histone deacetylase 2; experiment: Inhibition of HDAC2 (unknown origin) at 1 uM incubated for 30 mins by fluorometric analysis
[8] = Toxicity against silicosis C57BL/6J mouse model assessed as ALT index in serum at 50 mg/kg, ig administered daily via gavage and measured on day 28; assay type: organism-based; details: in vivo, po, 672 h, time 28 day
[9] = Toxicity against bleomycin-induced pulmonary fibrosis C57BL/6J mouse model assessed as effect on kidney morphological changes at 25 to 50 mg/kg, ig administered daily via gavage and measured on day 14 by Hematoxylin-Eosin staining based analysis; assay type: organism-based; details: in vivo, po, 336 h, dose 25-50 mg/kg, time 14 day
[10] = target: T2, Protein deacetylase HDAC6 (Homo sapiens); experiment: Inhibition of HDAC6 in human RPMI-8226 cells assessed as increase in acetylated histone H4 level at 0.25 to 1 uM incubated for 24 hrs by western blot analysis; assay type: cell-based; details: dose 0.25-1 µM
[11] = Toxicity against silicosis C57BL/6J mouse model assessed as effect on heart morphological changes at 50 mg/kg, ig administered daily via gavage and measured on day 28 by Hematoxylin-Eosin staining based analysis; assay type: organism-based; details: in vivo, po, 672 h, time 28 day
Mus musculus [12] = experiment: as §1, with “lung” for “lungs”, “Sirius red” for “Masson's trichrome”; assay type: functional, organism-based; details: dose 25-50 mg/kg, time 14.0 day
[13] = target: T2, Protein deacetylase HDAC6 (Homo sapiens); experiment: Inhibition of HDAC6 in human RPMI-8226 cells assessed as increase in acetylated histone H3 level at 0.25 to 1 uM incubated for 24 hrs by western blot analysis; assay type: cell-based; details: dose 0.25-1 µM
Fibroblast = experiment: Antiproliferative activity against human primary fibroblasts assessed as inhibition of cell growth incubated for 24 to 48 hrs by CCK8 assay; assay type: functional, cell-based

T1 sequence (Q92769 whole entry): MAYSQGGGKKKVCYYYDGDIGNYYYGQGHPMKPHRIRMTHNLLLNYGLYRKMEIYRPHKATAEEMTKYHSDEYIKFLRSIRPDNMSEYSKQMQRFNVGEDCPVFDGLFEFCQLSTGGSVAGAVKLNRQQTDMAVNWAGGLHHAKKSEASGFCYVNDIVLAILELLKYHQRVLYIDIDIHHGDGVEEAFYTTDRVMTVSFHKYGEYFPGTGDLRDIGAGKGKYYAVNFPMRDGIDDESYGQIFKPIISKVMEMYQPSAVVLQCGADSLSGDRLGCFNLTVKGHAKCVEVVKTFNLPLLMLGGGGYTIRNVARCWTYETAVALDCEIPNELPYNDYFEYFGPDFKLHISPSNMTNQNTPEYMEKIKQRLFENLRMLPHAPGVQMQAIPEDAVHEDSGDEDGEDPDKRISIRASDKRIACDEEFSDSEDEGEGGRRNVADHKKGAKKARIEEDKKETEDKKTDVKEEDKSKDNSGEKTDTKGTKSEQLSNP
Histone deacetylase 3, sequence (O15379 whole entry): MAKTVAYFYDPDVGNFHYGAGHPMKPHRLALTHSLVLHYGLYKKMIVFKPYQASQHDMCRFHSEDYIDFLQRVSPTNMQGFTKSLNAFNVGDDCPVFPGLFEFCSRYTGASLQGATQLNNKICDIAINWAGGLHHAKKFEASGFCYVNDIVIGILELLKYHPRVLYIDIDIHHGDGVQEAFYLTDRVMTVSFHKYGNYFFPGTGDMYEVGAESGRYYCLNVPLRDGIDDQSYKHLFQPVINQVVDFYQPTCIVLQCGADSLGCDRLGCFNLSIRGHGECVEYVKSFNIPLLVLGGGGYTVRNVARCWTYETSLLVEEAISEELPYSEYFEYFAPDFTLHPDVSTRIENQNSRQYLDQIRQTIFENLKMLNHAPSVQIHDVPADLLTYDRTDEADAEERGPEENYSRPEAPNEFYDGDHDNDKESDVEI

**Q.** Which results are given for `O=C(NO)c1ccc(CN2C(=O)C3=C(CCN(Cc4cccc(Cl)c4)C3)N3CCN=C23)cc1`?
**A.** Activity (Mus musculus [1]): Active; IC50 (Histone deacetylase 3): 1140 nM; Activity (Mus musculus [2]): Active; Superior Activity Compared To Positive Drug, Acy-1215; IC50 (Histone deacetylase 2 [3]): 642 nM; inhibition [4]: Active; IC50 [5]: 42.9 nM; Activity [6]: Non-toxic; inhibition (Histone deacetylase 2 [7]): 61.8%; Activity [8]: Non-toxic; Activity [9]: Non-toxic; inhibition [10]: Active; Activity [11]: Non-toxic; Activity (Mus musculus [12]): Active; inhibition [13]: Active; Less Affected; IC50 (Fibroblast): 29400 nM
